We go through 51 compounds from PubChem BioAssay AID652289 (Broad Institute, 2013).

Molecules are shown by their SMILES. Where “and” joins values, the source holds several entries; their conditions need not be identical. Equal values may be shown once. Calls of active or inactive are those of the source. The rule behind the calls is not given here. Some results are limits rather than exact numbers.

Test system in the first assay: not listed separately
Nature of the assay: quorum luxo light induction, V. cholerae bh1651 luxod47e, confirmatory dose response (AID 652289). As to conditions: V. cholerae BH1651 luxOD47E, luciferase light induction, 6 h; at 35 µM (top of the series).
For `O=C(CC1CCCCC1)Nc1nnc(-c2ccc3c(c2)CCCC3)o1`, the light induction was 0.061% (inactive).

Staying with this assay, now noted: V. cholerae BH1651 luxOD47E, luciferase light induction, 6 h; at 50 µM (top of the series).
With `CCCCCCCCCC(=O)C(O)CC` (stereo unspecified), the light induction is 0.038% (inactive).

Still in this assay, the particulars now being: V. cholerae BH1651 luxOD47E, luciferase light induction, 6 h; at 80 µM (top of the series).
Consider `Cc1ccc2cc3c(NC(=O)c4ccoc4)nn(C)c3nc2c1`, for which the light induction is 2.86% (inactive).
As for `O=C(Nc1nnc(-c2cccc(Cl)c2)o1)C1CCCCC1`, the light induction was 0.065% (inactive).
Still for that read-out and setting: the value for `O=C(Nc1nnc(-c2ccc(Cl)cc2)o1)C1CCCCC1` was -0.026% (inactive); that for `O=C(Nc1nnc(-c2ccc3c(c2)CCCC3)o1)C1CCC1` was -0.005% (inactive); that for `O=C(CC1CCCCC1)Nc1nnc(-c2cccnc2)o1` was -0.016% (inactive).
On to `CCC(C)(C)C(=O)Nc1nnc(-c2ccc3c(c2)OCCO3)o1`, for which the light induction is -0.006% (inactive).

The assay is the same for the next values; noted with them: V. cholerae BH1651 luxOD47E, luciferase light induction, 6 h; at 100 µM (top of the series).
In the case of `Cn1ccc(NC(=O)c2ccco2)n1`, the light induction was 0.053% (inactive).
Same read-out and setting: the value for `Cn1nc(NC(=O)c2ccco2)c2cc3ccc(C(C)(C)C)cc3nc21` was 0% (inactive); that for `C(=N\c1nnc(-c2ccc3c(c2)OCCO3)o1)/c1ccccc1` was 0.005% (inactive).
As to `Cc1ccc2cc3c(NC(=O)Cc4ccco4)nn(C)c3nc2c1`, the light induction is 1.12% (inactive).
As for `O=C(Nc1nnc(-c2ccc3c(c2)OCCO3)o1)C1CCC1`, the light induction is 0.013% (inactive).
With `CN1CCC(C(=O)Nc2nnc(-c3ccc4c(c3)OCCO4)o2)CC1`, the light induction was 0.052% (inactive).
Still for that read-out and setting: the value for `CC(C)c1ccc2cc3c(NC(=O)c4ccco4)nn(C)c3nc2c1` was 0.507% (inactive).
In the case of `CN(C)/C=N/c1nnc(-c2ccc3c(c2)OCCO3)o1`, the light induction was 0.039% (inactive).
Consider `O=C(Nc1nnc(-c2ccc3c(c2)OCCO3)o1)C(F)(F)c1ccccc1`, for which the light induction is -0.004% (inactive).
On the same count and under the same terms, the value for `Cc1ccc2cc3c(NC(=O)c4cc5ccccc5o4)nn(C)c3nc2c1` was -0.007% (inactive); that for `COc1ccc(S(=O)(=O)Nc2nnc(-c3ccc4c(c3)OCCO4)o2)cc1` was 0.005% (inactive).
Consider `c1ccc(CNc2nnc(-c3ccc4c(c3)OCCO4)o2)cc1`, for which the light induction was -0.004% (inactive).
Take `O=C(Nc1nnc(C2CCCC2)o1)C1CCCCC1`: the light induction is -0.015% (inactive).
On the same count and under the same terms, the value for `COc1ccc(-c2nnc(NC(C)=O)o2)cc1` was 0.045% (inactive).
As for `COc1cccc(-c2nnc(NC(=O)C3CCCCC3)o2)c1`, the light induction is -0.005% (inactive).
With `O=S(=O)(Nc1nnc(-c2ccc3c(c2)OCCO3)o1)c1ccc(Cl)cc1`, the light induction is -0.005% (inactive).
Turning to `O=C(Nc1nnc(-c2ccncc2)o1)C1CCC1`, the light induction is 0.055% (inactive).
As to `O=C(Cc1ccc(-c2ccccc2)cc1)NC1CCC1`, the light induction was -0.023% (inactive).
The same measure, in the same setting: the value for `Cc1ccc2cc3c(NC(=O)c4ccccn4)nn(C)c3nc2c1` was 0.001% (inactive); that for `O=C(Nc1nnc(-c2ccccc2Cl)o1)C1CCCCC1` was -0.01% (inactive); that for `CC(C)(C)OC(=O)N1CCC(C(=O)Nc2nnc(-c3ccc4c(c3)OCCO4)o2)CC1` was 0.028% (inactive).
Still for that read-out and setting: the value for `Cc1ccc2cc3c(NC(=O)c4ccc(C)o4)nn(C)c3nc2c1` was -0.015% (inactive); that for `O=C(Nc1nnc(-c2cccnc2)o1)C1CCC1` was 0.001% (inactive).
Same read-out and setting: the value for `CCn1nnnc1NCc1ccc(C(C)C)cc1` was -0.004% (inactive); that for `CCCCCCCCCC(=O)[C@H](O)CC` (racemic) was 0.014% (inactive); that for `O=C(Nc1nnc(-c2ccc3c(c2)OCCO3)o1)C1CC1` was 0.004% (inactive).

For a further assay, the system named is V. cholerae BH1651 luxOD47E, luciferase light induction, 6 h. Described as above.
Details: not given
As for `Cc1cc2cc3c(NC(=O)c4ccco4)nn(C)c3nc2cc1C`, the AC40 was 63.3 µM.
On the same count and under the same terms, the value for `Cc1cc(F)cc2nc3c(cc12)c(NC(=O)c1ccco1)nn3C` was 41.3 µM; that for `COc1ccccc1-c1nnc(NC(=O)C2CCCCC2)o1` was > 100 µM (inactive); that for `COc1ccc2cc3c(NC(=O)c4ccco4)nn(C)c3nc2c1` was 2.73 µM.
On the same count and under the same terms, the value for `Cn1nc(NC(=O)c2ccco2)c2cccnc21` was 58.4 µM; that for `O=C(Nc1nnc(-c2ccc3c(c2)OCCO3)o1)C1CCCCC1` was 5.31 µM and 2.57 µM.
The same measure, in the same setting: the value for `Cc1ccc2cc3c(NC(=O)c4cccs4)nn(C)c3nc2c1` was 70.8 µM; that for `CCc1ccc2cc3c(NC(=O)c4ccco4)nn(C)c3nc2c1` was 32.9 µM; that for `Cn1nc(NC(=O)c2ccco2)c2ccccc21` was 89.4 µM.
With `Cc1cc(F)c2cc3c(NC(=O)c4ccco4)nn(C)c3nc2c1`, the AC40 was 33.5 µM.
In the case of `Cn1nc(NC(=O)c2ccco2)c2cc3ccccc3nc21`, the AC40 is 3.58 µM.
Same read-out and setting: the value for `COc1ccc(-c2nnc(NC(=O)C3CCCCC3)o2)cc1` was > 100 µM (inactive).
For the compound `Cc1cc2nc3c(cc2cc1F)c(NC(=O)c1ccco1)nn3C`, the AC40 is 68.7 µM.
Consider `O=C(Nc1nnc(-c2cccnc2)o1)C1CCCCC1`, for which the AC40 was 61.3 µM.
As to `Cc1ccc2cc3c(NC(=O)c4ccco4)nn(C)c3nc2c1`, the AC40 is 5.26 µM and 15.3 µM.
Still for that read-out and setting: the value for `Cc1ccc2cc3c(NC(=O)C4CCCC4)nn(C)c3nc2c1` was 40.6 µM.
Same read-out and setting: the value for `O=C(Nc1nnc(-c2ccc3c(c2)OCCO3)o1)C1CCCCCC1` was 6.99 µM.
